Experimental data published in paper PMC10459042, “Synthesis of 1,2,3-Triazole-Containing Methoxylated Cinnamides and Their Antileishmanial Activity against the Leishmania braziliensis Species” (Pharmaceuticals, 2023).
In brackets after ≈: the same amount, converted by molar mass.

Legend:
[1] = tested on: Leishmania braziliensis axenic amastigotes; assay: In vitro antileishmanial activity against axenic amastigotes (MTT); format: cell-based
Method: To obtain the axenic amastigotes, 1 × 10^9 stationary promastigotes were washed three times in sterile phosphate-buffered saline (PBS) and incubated in 5 mL FBS for 48 h at 37 °C. Parasites were washed with cold PBS, and their morphology was evaluated with an optical microscope after Giemsa staining as previously described.
(§1) The in vitro antileishmanial activity was evaluated by incubating the promastigotes or axenic amastigotes (1 × 10^6 cells/well) with the 24 synthetic derivatives (Compounds 5–28; 0 to 600 µg/mL) in 96-well culture plates (Nunc, Nunclon, Roskilde, Denmark) for 48 h at 24 °C. Due to the difficulty in obtaining a high concentration of murine macrophages, the cytotoxicity experiment was evaluated by incubating such cells (5 × 10^5 per mL) with Compound 28 (0 to 600 µg/mL), which presented the best antileishmanial activity, for 48 h at 37 °C in a 5% CO2 environment. AmpB (0 to 10 µg/mL; Sigma-Aldrich, St. Louis, MO, USA) was used as a positive control in both experiments. The cell viability was assessed using the 3-(4.5-dimethylthiazol-2-yl)-2.5-diphenyl tetrazolium bromide (MTT, Sigma-Aldrich, St. Louis, MO, USA) method. The optical density (OD) values were read using a microplate spectrophotometer (Molecular Devices, Spectra Max Plus, San Jose, CA, USA) at 570 nm. Results were entered into Microsoft Excel (version 10.0) spreadsheets, and the 50% Leishmania and macrophage inhibitory concentrations (IC50 and CC50, respectively) were calculated by applying a sigmoidal regression of the dose–response curve. The SI was calculated by dividing the CC50 with the respective IC50 values.

[2] = tested on: L. braziliensis promastigotes; assay: Membrane permeability evaluation (propidium iodide); format: cell-based, Leishmania braziliensis; conditions: one IC50 value, 48 h at 24 °C
Method: L. braziliensis promastigotes (1 × 10^7 cells/mL) were incubated with Compound 28 (at a concentration corresponding to one IC50 value) for 48 h at 24 °C. After washing with PBS, parasites (3 × 10^6 cells/well) were incubated with 1.0 µg/mL PI (Sigma-Aldrich, St. Louis, MO, USA) in the dark for 15 min. The samples were analyzed using a fluorometer microplate reader (FLx800, BioTek Instruments, Winooski, VT, USA), with excitation and emission wavelengths of […], respectively. Parasites that were killed by heating to 65 °C for 10 min were used as controls for the membrane permeabilization. Parasites that were untreated or treated with Compound 28 and not labeled with the fluorescent probe were used as the sample blank.
Figure 5 Effect of Compound 28 on parasite membrane permeability. Parasite promastigotes were either left untreated or treated with Compound 28 (at a concentration corresponding to the IC50 value) for 48 h. The PI dye fluorescence was measured fluorometrically at excitation and emission wavelengths of 540 and 600 nm, respectively. Parasites heated at 65 °C for 10 min were used as a positive control. The data is presented as the fold increase in PI fluorescence relative to the untreated control. (***), signifying p < 0.001, indicates a statistically significant difference compared with the non-treated control.

[3] = tested on: Leishmania braziliensis stationary promastigotes; assay: In vitro antileishmanial activity against promastigotes (MTT); format: cell-based
Method: The study was approved by the Committee for the Ethical Handling of Research Animals from the Federal University of Minas Gerais (protocol number 085/2017). Leishmania braziliensis (MHOM/BR/1975/M2904) promastigotes were grown at 24 °C in Schneider’s medium (Sigma-Aldrich, USA) supplemented with 20% heat-inactivated fetal bovine serum (FBS, Sigma-Aldrich, USA) and 20 mmol/L L-glutamine at pH 7.4 [65].
as §1

[4] = tested on: L. braziliensis-infected macrophages; assay: Treatment of infected macrophages; format: cell-based, Leishmania braziliensis; conditions: 48 h at 37 °C; for Number of Amastigotes per Cell after treatment: untreated 10.3; for Percentage of Infected Macrophages after Treatment: untreated 92.8
Method: Murine macrophages (5 × 10^5 cells) were plated on round glass coverslips in 24-well plates in RPMI 1640 medium with added 20% FBS and 20 mmol/L L-glutamine at pH 7.4 and incubated for 24 h at 37 °C in 5% CO2. Promastigotes were added to the wells (at a ratio of 10 parasites per macrophage), and cultures were incubated for 48 h at 37 °C in a 5% CO2 environment. Free parasites were removed by extensive washing with RPMI 1640 medium, and the infected macrophages were treated with Compound 28 or AmpB (0, 1.0, 2.5 and 5.0 µg/mL in both cases) for 48 h at 37 °C in 5% CO2.
To evaluate the inhibition of infection, promastigotes (5 × 10^6 cells) were first incubated with Compound 28 or AmpB (0, 1.0, 2.5 and 5.0 µg/mL in both cases) for 4 h at 24 °C; these were then used to infect murine macrophages (at a ratio of 10 parasites per macrophage) and incubated for 24 h at 37 °C in 5% CO2. Then, cells were fixed with 4% paraformaldehyde, washed, and stained with Giemsa. The percentage of infected macrophages and the number of recovered amastigotes were determined by counting 200 cells, in triplicate, using an optical microscope.

[5] = Cytotoxicity in mammalian cells (MTT); format: cell-based; conditions: mouse; murine macrophages, 48 h at 37 °C in 5% CO2, MTT, mean ± standard deviation
Method: as §1

- IC50 Axenic Amastigotes ([1]; 48 h at 24 °C, MTT, mean ± standard deviation): 87.8 ± 9.7 µg/mL (≈ 174 µM)
- IC50 ([1]; Leishmania braziliensis, 48 h, 48 h at 24 °C, MTT, mean ± standard deviation): 88 ± 9.7 µg/mL (≈ 175 µM)
- melting point: 197 to 198.4 °C
- IC50 ([3]; Leishmania braziliensis, 48 h at 24 °C, MTT, mean ± standard deviation): 106 ± 16.7 µg/mL (≈ 210 µM)
SMILES: CCN(CC)c1ccc2cc(-n3cc(CNC(=O)/C=C/c4ccc(OC)c(OC)c4)nn3)c(=O)oc2c1 [Compound 28, N-((1-(7-(diethylamino)-2-oxo-2H-chromen-3-yl)-1H-1,2,3-triazol-4-yl)methyl) (3,4-dimethoxy) cinnamide]
- Selectivity index (SI), ratio CC50/IC50, axenic amastigotes ([1]; CC50 murine macrophages / IC50 axenic amastigotes): 13.3
- Fold increase in PI-fluorescence compared with untreated parasites [2]: 2.3 fold
- Selectivity index (SI), ratio CC50/IC50, promastigotes ([3]; CC50 murine macrophages / IC50 promastigotes): 11.1
- Number of Amastigotes per Cell after treatment ([4]; 1.0 µg/mL): 6.7
- Percentage of Infected Macrophages after Treatment ([4]; 1.0 µg/mL): 79.5%
- Number of Amastigotes per Cell after treatment ([4]; 2.5 µg/mL): 4.0
- Percentage of Infected Macrophages after Treatment ([4]; 2.5 µg/mL): 70.3%
- Number of Amastigotes per Cell after treatment ([4]; 5.0 µg/mL): 2.9
- Percentage of Infected Macrophages after Treatment ([4]; 5.0 µg/mL): 60.2%
- CC50 at 48 h [5]: > 600 µg/mL
